Data on 13 compounds can be found in PMC10375533, “Preference of Bacterial Rhamnosyltransferases for 6-Deoxysugars Reveals a Strategy To Deplete O-Antigens” (Journal of the American Chemical Society, 2023).

In one assay the target is T. thermophilus RfbF (Thermus thermophilus, UniProt Q72KB9). The assay can be described thus: Isothermal titration calorimetry (ITC) binding measurements with RfbF. The following applies: for ΔG / ΔH / ΔS / KD / binding to RfbF by ITC (in words) / Kd / n-value (stoichiometry): ITC; for fold increase in KD relative to dTDP-β-L-Rha: ITC with RfbF, compared to the native donor; for n-value (stoichiometry): ligands with sigmoidal binding curves, SD in parentheses, n = 3.

Assay [1] deals with T1, E. coli WbbL (Escherichia coli, UniProt P36667). As to the kind of experiment: In vitro inhibition assay of E. coli WbbL with monosaccharides and compound 2. In kind it is biochemical. The following applies: 5 mM inhibitor, 250 µM dTDP-β-L-Rha, 1 mM GlcNAc-PP-undecaprenol, 8 min. As for the experimental part:
Primers were purchased from Invitrogen and sequencing was completed by GENEWIZ (Azenta) or EtonBio. Chemicals were purchased from Sigma Aldrich, CarboSynth, Fisher Scientific, and Cayman without further purification. 1H, 13C, and 31P NMR spectra were recorded on a Bruker Avance III 400, 500, or 600 MHz instrument. All spectra were calibrated using residual non-deuterated solvent as an internal reference and processed using MestReNova (authorized to NYU). Gel filtration purification and analyses was performing using at AKTA pure 15 L instrument (UNICORN™ software, GE Healthcare). HRMS analyses were acquired on an Agilent 6224 Accurate-Mass time-of-flight LC/MS (LC-TOF) spectrometer equipped with an electrospray ionization (ESI) source with an autosampler. GraphPad Prism software 9.0 was used for all plotting and data analysis unless otherwise noted. Statistical significance of grouped data was assessed using paired t-tests in Prism. For the IC50 calculation, data were fit in Prism using the equation log(inhibitor) versus response (three parameters): y = bottom + (top-bottom)/(1+10^(X-log IC50)) based on the assumption the Hill slope would be 1, as predicted by ITC results with n ~ 1 for donor ligands. Data was normalized to controls without enzyme and with no inhibitor added. Confidence intervals were calculated based on the standard error. 1M TEAB buffer was prepared by suspending triethylamine (1 mol, 139 mL) in water (700 mL) and passing carbon dioxide (from evaporated dry ice) through the mixture until the pH=7.5. The buffer was diluted to 1L and stored as a stock solution at 4 °C. Prior to use it was diluted to 50 mM in deionized H2O […]
Methods for protein and cellular biochemistry/bioinformatics used in this study.
Bioinformatic approach to identify Thermus thermophilus RfbF as a putative glycolipid RT.
The Carbohydrate-Active Enzymes Database (CAZy.org) was used to identify thermophilic organisms with annotated glycosyltransferases (GTs).11-12 Genes annotated as wbbL have been experimentally shown to encode dTDP-rhamnosyltransferases that transfer L-Rha onto N-acetyl--a-D-glucosamine-1-diphospholipid acceptors.13-14 In Shigella flexneri, the protein encoded by rfbF was noted to carry out the same biochemical activity as WbbL based on genetic and LPS analyses.15-16 Both E. coli WbbL and S. flexneri RfbF belong to the GT2 family. A CAZy search for rfbF and wbbL was performed in the genomes of Gram-negative extreme thermophiles, which […]
(GenBank: AAS80876.1), which had not yet been biochemically characterized. Protein ANalysis […]
(§1) thermodynamic values were evaluated using ITCRun software (TA Instruments) and fit with a […]
Specific activities were determined by modification of the protocol outlined by Li et al. […]

The target in assay [2] is T1, E. coli WbbL. As to the kind of experiment: Specific activity assay of rhamnosyltransferase (HPLC, rSAP-coupled), E. coli WbbL membrane fraction. The assay is classed as biochemical. The following applies: native donor dTDP-β-L-Rha, t = 1 h. As for the experimental part:
as §1
Specific activity assays for bacterial rhamnosyltransferases from different species.
Specific activities were determined by modification of the protocol outlined by Li et al.
Specifically, 0.155 mg/mL RfbF, 0.081 mg/mL E. coli WbbL, or 0.111 mg/mL Mtb WbbL were used to initiate the following reaction mixtures: 25 mM Tris-HCl pH 7.5, 1 mM GlcNAc-PP-lipid, 1 mM donor-substrate, 5 mM MgCl2, 1 U rSAP (1000 U/mL stock solution), 1% (v/v) Triton X-100, 5% (v/v) DMSO (for reactions containing C55, C20, C15 lipid) or MeOH (for reactions containing C35 lipid) in a total volume of 20 µL. […]
Consumption of NDP-sugar donors was monitored on reverse phase HPLC equipped with a Phenomenex 5 µm, 21.2 x 150 mm, NX-C18 Å Gemini column with solvent A (50 mM TEAB pH 8.0) and solvent B (acetonitrile) using the following linear gradient: 0% B (t = 0-5 min), 0-5% B (t = 5-25 min), 5-90% B (t = 25-35 min). Absorbance at wavelength (l) = 254 nm was monitored.
Consumption was quantified by integration of dTDP-sugar donors relative to the total amount of thymidine-containing products, which was then subtracted from the starting dTDP-sugar concentration at the t = 0 time point. […] Characterization of each reaction was monitored by scanning in the negative ion mode and analyzed using Agilent MassHunter […]

Setting [3] is: 25 °C, ligand titrated into 110 µM RfbF.
[4] abbreviates: 25 °C, ligand titrated into 110 µM RfbF, one-site model, spread = SD, triplicate.
Where [5] appears, read: ligand titrated into 110 µM RfbF.
[6] abbreviates: KD, 25 °C, ligand titrated into 110 µM RfbF, one-site model, spread = SD, triplicate.

Entries after “also recorded” stand apart in the source; their conditions may differ. Read-outs that look alike come from different tables or passages of the source. Some results are limits rather than exact numbers.

T1 sequence (P36667 whole entry, looked up): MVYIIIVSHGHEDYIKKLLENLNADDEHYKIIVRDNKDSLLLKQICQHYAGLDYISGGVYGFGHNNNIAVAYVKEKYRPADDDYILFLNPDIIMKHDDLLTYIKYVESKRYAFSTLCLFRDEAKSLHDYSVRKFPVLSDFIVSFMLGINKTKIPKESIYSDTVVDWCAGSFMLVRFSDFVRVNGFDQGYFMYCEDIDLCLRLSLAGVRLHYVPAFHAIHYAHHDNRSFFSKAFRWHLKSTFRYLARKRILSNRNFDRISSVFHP
Sequence of T. thermophilus RfbF (Q72KB9 entry or part of it): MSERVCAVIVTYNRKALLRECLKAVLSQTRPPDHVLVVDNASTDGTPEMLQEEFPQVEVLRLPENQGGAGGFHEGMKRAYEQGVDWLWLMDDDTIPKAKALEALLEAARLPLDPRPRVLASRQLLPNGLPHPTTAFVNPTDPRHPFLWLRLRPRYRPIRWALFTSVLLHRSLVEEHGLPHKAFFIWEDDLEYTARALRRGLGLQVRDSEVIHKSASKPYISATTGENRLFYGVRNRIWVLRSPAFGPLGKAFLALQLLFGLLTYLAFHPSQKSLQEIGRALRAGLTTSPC

Consider `CC1OC(OP(=O)(O)OP(=O)(O)OCC2OC(n3cnc4c(=O)[nH]c(N)nc43)C(O)C2O)C(O)C(O)C1O` [GDP-β-L-Rha, GDP-β-L-rhamnose], for which, at T. thermophilus RfbF (setting [3]), the ΔG entry is recorded as “N/B”, the ΔH result is on record as “N/B” and the ΔS result was “N/B”. On T. thermophilus RfbF (setting [4]), the KD entry is recorded as “N/B”. For the same compound, the “binding to RfbF by ITC (in words)” value at T. thermophilus RfbF (setting [5]) is given as “no measurable; also recorded: no binding”.

Consider `OC[C@@H]1OC(O)[C@H](O)[C@H](O)[C@H]1O` (stereo partly drawn) [L-Man, L-Mannose, reference compound], for which the “inhibition of E. coli WbbL” value against E. coli WbbL [1] is on record as “Lack of inhibition”.

As to `CC1OC(OP(=O)(O)O)C(O)C(O)C1O` [L-Rha-1-phosphate, L-Rhamnose-1-phosphate, reference compound], the Kd at T. thermophilus RfbF (5-10 mM ligand titrated into 110 µM RfbF, read-out: KD (beyond measurable limit)) is over 1000 µM.

Consider `N[C@@H](CO)C(=O)O` [Ser], for which, at E. coli WbbL [2], the “turnover as noncanonical acceptor with the native donor” value is “no turnover”.

For the compound `CC(=O)NC1C(OP(=O)(O)OP(=O)(O)OCC2OC(n3ccc(=O)[nH]c3=O)C(O)C2O)OC(CO)C(O)C1O` [UDP-α-D-GlcNAc, UDP-a-N-acetyl-D-glucosamine, reference compound], the “turnover as noncanonical acceptor with the native donor” value on E. coli WbbL [2] (listed as UDP-α-GlcNAc) is listed as “no turnover; also recorded: not used as an acceptor”. Moreover, at T. thermophilus RfbF (setting [3]), the ΔG entry was “N/B”, the ΔH entry is listed as “N/B” and the ΔS result was “N/B”. The KD result on T. thermophilus RfbF (setting [4]) was “N/B”. For the same compound, at T. thermophilus RfbF (ligand titrated into 110 µM RfbF, listed as UDP-a-D-GlcNAc), the “binding to RfbF by ITC (in words)” value was “no”. Moreover, the “binding to RfbF by ITC (in words)” value on T. thermophilus RfbF (ligand titrated into 110 µM RfbF, listed as UDP-α-GlcNAc) was “did not bind at μM concentrations”.

For `CC1OC(OP(=O)(O)OP(=O)(O)OCC2OC(n3ccc(=O)[nH]c3=O)C(O)C2O)C(O)C(O)C1O` [UDP-β-L-Rha, UDP-β-L-rhamnose], on T. thermophilus RfbF, the “fold increase in KD relative to dTDP-β-L-Rha” value is about 4.5 fold and the “n-value (stoichiometry)” value is given as 1.30 (0.28). At T. thermophilus RfbF (setting [3]), the ΔG was 8.55 (3.65) kcal/mol, the ΔH was -6.72 (1.01) kcal/mol and the ΔS is reported as -51.2 (14.7) cal/mol·K. Further, binding at T. thermophilus RfbF (setting [6]) was characterised by a dissociation constant (Kd) of 36.1 ± 10.7 µM.

Regarding `Cc1cn([C@H]2C[C@H](O)[C@@H](COP(=O)(O)OP(=O)(O)O)O2)c(=O)[nH]c1=O` [dTDP, reference compound], the “binding to RfbF by ITC (in words)” value at T. thermophilus RfbF (setting [5]) is given as “no binding profile is observed; also recorded: did not bind”.

Turning to `Cc1cn(C2CC(O)C(COP(=O)(O)OP(=O)(O)OC3OC(CO)C(O)C(O)C3O)O2)c(=O)[nH]c1=O` [dTDP-α-D-Glc, dTDP-a-D-glucose, reference compound], the “fold increase in KD relative to dTDP-β-L-Rha” value at T. thermophilus RfbF (listed as dTDP-α-Glc) is listed as about 75 fold. This compound also yielded a Kd on T. thermophilus RfbF (setting [6]) of 637 ± 96 µM.

Take `Cc1cn(C2CC(O)C(COP(=O)(O)OP(=O)(O)OC3OC(C)C(O)C(O)C3O)O2)c(=O)[nH]c1=O` [dTDP-α-L-Rha, dTDP-a-L-rhamnose]: on T. thermophilus RfbF (setting [3]), the ΔG entry is reported as “N/B”, the ΔH entry is “N/B” and the ΔS result was “N/B”. Also, the KD result at T. thermophilus RfbF (setting [4]) is listed as “N/B”. Besides, the “binding to RfbF by ITC (in words)” value at T. thermophilus RfbF (setting [5]) is reported as “no detectable binding”. Further, the “binding to RfbF by ITC (in words)” value on T. thermophilus RfbF (ligand titrated into 110 µM RfbF, listed as dTDP-a-L-Rha) was “no measurable”.

For `Cc1cn(C2CC(O)C(COP(=O)(O)OP(=O)(O)OC3OC(C)C(O)C(O)C3O)O2)c(=O)[nH]c1=O` [dTDP-β-L-6dTal, dTDP-6-deoxy-β-L-talose], at T. thermophilus RfbF (setting [3]), the ΔG is 0.415 (2.847) kcal/mol, the ΔH was -8.17 (2.70) kcal/mol and the ΔS is recorded as -28.8 (3.7) cal/mol·K. In addition, on T. thermophilus RfbF (setting [5]), the “binding to RfbF by ITC (in words)” value is recorded as “comparable affinity as the native substrate”. Also, the “n-value (stoichiometry)” value on T. thermophilus RfbF was 0.934 (0.028). At T. thermophilus RfbF (setting [6]), this compound gave a Kd of 16.5 µM.

With `Cc1cn(C2CC(O)C(COP(=O)(O)OP(=O)(O)OC3OC(C)C(O)C(O)C3O)O2)c(=O)[nH]c1=O` [dTDP-β-L-Fuc, dTDP-β-L-fucose], the “fold increase in KD relative to dTDP-β-L-Rha” value at T. thermophilus RfbF is recorded as about 15 fold. On T. thermophilus RfbF (setting [6]), this compound displayed a Kd of 126 ± 1 µM.

`Cc1cn(C2CC(O)C(COP(=O)(O)OP(=O)(O)OC3OC(CO)C(O)C(O)C3O)O2)c(=O)[nH]c1=O` [dTDP-β-L-Man, dTDP-β-L-mannose]: the “fold increase in KD relative to dTDP-β-L-Rha” value at T. thermophilus RfbF worked out at 60 fold. Besides, the Kd at T. thermophilus RfbF (setting [6]) amounted to 496 ± 56 µM.

For L-rhamnose [reference compound], the “inhibition of E. coli WbbL” value at E. coli WbbL [1] is on record as 38%.
